Test results published in patent US5763413A, “Lewis-associated compound, process for producing the same, and anti-inflammatory” (MECT Corporation, priority 1993, dated 1998).

Columns and labels:
[1] = Simple acute toxicity test (intravenous injection); format: in vivo, male mice of ddY strain; details: i.v. (tail vein), ddY mice
Experimental: Example of Test 1 (Simple Acute Toxicity Test)
The simple acute toxicity test was carried out by an intravenous injection of compounds of the present invention.
Into the tail vein of male mice of ddY strain weighing 18~20 g which have been kept under the conditions at the temperature of 23°±1° C. and in the humidity of 55 ±7% were injected a solution of the compound of the present invention dissolved in the physiological saline containing the desired dose per 20 g body weighing 0.2 ml. Two dosages of which were 50 mg/kg and 500 mg/kg body weight were used.

passive Arthus reaction [2] = assay: Anti-inflammatory activity test: passive Arthus reaction (Example of Test 2); format: in vivo, male guinea pigs of the Hartley strain; details: Table 21, 30 min before antigen
Experimental: Example of Test 2 (Anti-inflammatory Activity Test)
(§1) Male guinea pigs of the Hartley strain weighing 200~250 g were used.
(2) Experimental Materials
(§2) The anti-ovalbumin rabbit serum (PCA titer=1/80,000) and ovalbumin were used as the antiserum and antigen, respectively.
(§3) The passive Arthus reaction was performed according to the method of Katayama et al. [Katayama, S. et al., Arzeim-Forsch., 31, 1196 (1981)]. That is, guinea pigs were sensitized by an intravenous injection of said anti-ovalbumin rabbit serum (2.5 ml/kg). Thirty minutes after the injection, the Arthus reaction was induced by the intradermal injection of an antigen solution (0.05 ml) containing 0.10 mg of ovalbumin to the abdomen shaved the day before. Two hours after the antigen challenge, the area of intradermal bleeding was measured and used as the index representing the grade of inflammatory reaction. Test compounds were intravenously injected 30 min before the antigen injection. Four guinea pigs per each group were used.
(§4) The percent inhibi- is expressed as the bleeding area of the challenged site (%) of the animal group injected with each compound relative to that (100%) of the group administered with the physiological saline.

passive Arthus reaction [3] = assay: Anti-inflammatory activity test, carried out as Example of Test 2 (Example of Test 3); format: in vivo, male guinea pigs of the Hartley strain; details: Table 22, i.v.
Experimental: as §1, §2, §3, §4
The anti-inflammatory activity test of compounds of the present invention was similarly carried out as in the case of Example of Test 2.

| SMILES | Mortality ([1]; 50 mg/kg) | Mortality ([1]; 500 mg/kg) | Percent inhibition (passive Arthus reaction) (passive Arthus reaction [2]; 1 mg/kg i.v., 1 mg/kg) | Percent inhibition (passive Arthus reaction) (passive Arthus reaction [2]; 3 mg/kg i.v., 3 mg/kg) | Percent inhibition (passive Arthus reaction) (passive Arthus reaction [3]; 0.01 mg/kg) | Percent inhibition (passive Arthus reaction) (passive Arthus reaction [3]; 0.1 mg/kg) | Percent inhibition (passive Arthus reaction) (passive Arthus reaction [3]; 1 mg/kg) | Percent inhibition (passive Arthus reaction) (passive Arthus reaction [2]; 1 mg/kg i.v.) | Percent inhibition (passive Arthus reaction) (passive Arthus reaction [2]; 3 mg/kg i.v.) | Percent inhibition (passive Arthus reaction) (passive Arthus reaction [3]; 0.001 (unit of dose not given)) |
| --- | --- | --- | --- | --- | --- | --- | --- | --- | --- | --- |
| CCCOC1OC(CO)C(OC2OC(CO)C(O)C(OC3(C(=O)[O-])CC(O)C(NC(C)=O)C(C(O)C(O)CO)O3)C2O)C(OC2OC(C)C(O)C(O)C2O)C1NC(C)=O.[Na+] (stereo not drawn) [Compound 40] | 0/3 | 0/3 | 47.3 ± 7.4% | 63.5 ± 8.3% |  |  |  |  |  |  |
| COc1ccc(OC2OC(CO)C(OC3OC(CO)C(O)C(OS(=O)(=O)[O-])C3O)C(OC3OC(C)C(O)C(O)C3O)C2O)cc1.[Na+] (stereo not drawn) [Compound 143] |  |  |  |  | 84.1 ± 5.2% | 52.5 ± 12.2% | 70.1 ± 1.8% |  |  |  |
| CC(=O)NC1C(O)CC(OC2C(O)C(CO)OC(OC3C(CO)OC(OCC4OC(O)C(O)C(O)C4O)C(NC(C)=O)C3OC3OC(C)C(O)C(O)C3O)C2O)(C(=O)[O-])OC1C(O)C(O)CO.[Na+] (stereo not drawn) [Compound 53] | 0/3 | 0/3 |  |  |  |  |  | 44.8 ± 15.0% | 58.7 ± 9.5% |  |
| CCCOC1OC(CO)C(OC2OC(C)C(O)C(O)C2O)C(OC2OC(CO)C(O)C(O)C2OS(=O)(=O)[O-])C1NC(C)=O.[Na+] (stereo not drawn) [Compound 188] |  |  |  |  | 57.2 ± 14.5% | 86.2 ± 1.7% |  |  |  | 84.2 ± 5.4% |
| COc1ccc(OC2OC(CO)C(OC3OC(CO)C(OS(=O)(=O)[O-])C(O)C3O)C(OC3OC(C)C(O)C(O)C3O)C2O)cc1.[Na+] (stereo not drawn) [Compound 144] |  |  |  |  | -15.2 ± 6.7% | 22.0 ± 30.1% | 23.9 ± 14.7% |  |  |  |
| CCCOC1OC(CO)C(OC2OC(C)C(O)C(O)C2O)C(OC2OC(CO)C(OS(=O)(=O)[O-])C(OS(=O)(=O)[O-])C2OS(=O)(=O)[O-])C1NC(C)=O.[Na+].[Na+].[Na+] (stereo not drawn) [Compound 176] |  |  |  |  | 57.5 ± 14.7% | 83.9 ± 10.1% | 92.4 ± 3.8% |  |  |  |
| CCCOC1OC(CO)C(OC2OC(CO)C(O)C(OC3(C(=O)[O-])CC(O)C(NC(C)=O)C(C(O)C(O)CO)O3)C2O)C(OC2OC(C)C(O)C(O)C2O)C1NC(C)=O.[Na+] (stereo not drawn) [Compound 121] | 0/3 | 0/3 | 42.1 ± 8.3% | 59.8 ± 5.3% |  |  |  |  |  |  |
| CCCOC1OC(CO)C(OC2OC(C)C(O)C(O)C2O)C(OC2OC(CO)C(O)C(OS(=O)(=O)[O-])C2O)C1NC(C)=O.[Na+] (stereo not drawn) [Compound 26] | 0/3 | 0/3 |  |  |  |  |  | 75.5 ± 1.6% | 77.3 ± 8.0% |  |
| CCCOC1OC(CO)C(OC2OC(C)C(O)C(O)C2O)C(OC2OC(CO)C(O)C(OC3(C(=O)[O-])CC(O)C(NC(C)=O)C(C(O)C(O)CO)O3)C2O)C1NC(C)=O.[Na+] (stereo not drawn) [Compound 90] | 0/3 | 0/3 | 65.4 ± 8.5% | 69.6 ± 6.3% |  |  |  |  |  |  |
| CCCCCCCCCCCCCCCCCCCCCCCC(=O)NC(COC1OC(CO)C(OC2OC(CO)C(O)C(OC3(C(=O)[O-])CC(O)C(NC(C)=O)C(C(O)C(O)CO)O3)C2O)C(OC2OC(C)C(O)C(O)C2O)C1NC(C)=O)C(O)CCCCCCCCCCCCCCC.[Na+] (stereo not drawn) [Compound 46] | 0/3 | 0/3 |  |  |  |  |  | 25.6 ± 11.3% | 74.4 ± 16.3% |  |
| CCCOC1OC(CO)C(OC2OC(CO)C(O)C(OCC(=O)[O-])C2OCC(=O)[O-])C(OC2OC(C)C(O)C(O)C2O)C1NC(C)=O.[Na+].[Na+] (stereo not drawn) [Compound 18] | 0/3 | 0/3 |  |  |  |  |  | 75.7 ± 3.9% | 60.8 ± 9.8% |  |
| CCCOC1OC(CO)C(OC2OC(CO)C(O)C(OS(=O)(=O)[O-])C2O)C(OC2OC(C)C(O)C(O)C2O)C1NC(C)=O.[Na+] (stereo not drawn) [Compound 10] | 0/3 | 0/3 |  |  |  |  |  | 25.5 ± 17.4% | 64.8 ± 3.4% |  |
| CCCOC1OC(CO)C(OC2OC(C)C(O)C(O)C2O)C(OC2OC(CO)C(OS(=O)(=O)[O-])C(O)C2O)C1NC(C)=O.[Na+] (stereo not drawn) [Compound 190] |  |  |  |  | 79.3 ± 4.7% | 76.9 ± 4.1% |  |  |  | 12.7 ± 6.3% |
| CCCOC1OC(CO)C(OC2OC(C)C(O)C(O)C2O)C(OC2OC(CO)C(O)C(OC3(C(=O)[O-])CC(O)C(NC(C)=O)C(C(O)C(O)CO)O3)C2O)C1NC(C)=O.[Na+] (stereo not drawn) [Compound 123] | 0/3 | 0/3 | 76.8 ± 12.0% | 84.5 ± 5.1% |  |  |  |  |  |  |
| CC(=O)NC1C(O)CC(OC2C(O)C(CO)OC(OC3C(CO)OC(OC4C(O)C(O)OC(CO)C4O)C(NC(C)=O)C3OC3OC(C)C(O)C(O)C3O)C2O)(C(=O)[O-])OC1C(O)C(O)CO.[Na+] (stereo not drawn) [Compound 62] | 0/3 | 0/3 |  |  |  |  |  | 41.9 ± 8.9% | 57.4 ± 7.3% |  |
| CCCOC1OC(CO)C(OC2OC(C)C(O)C(O)C2O)C(OC2OC(CO)C(O)C(O)C2OS(=O)(=O)[O-])C1NC(C)=O.[Na+] (stereo not drawn) [Compound 175] |  |  |  |  | 44.6 ± 20.1% | 62.5 ± 16.1% | 67.1 ± 4.4% |  |  |  |
| CCCOC1OC(CO)C(OC2OC(C)C(O)C(O)C2O)C(OC2OC(CO)C(O)C(O)C2OCC(=O)[O-])C1NC(C)=O.[Na+] (stereo not drawn) [Compound 32] | 0/3 | 0/3 |  |  |  |  |  | 61.0 ± 4.2% | 57.4 ± 8.7% |  |
| CCCOC1OC(CO)C(OC2OC(C)C(O)C(O)C2O)C(OC2OC(CO)C(O)C(OCC(=O)[O-])C2OCC(=O)[O-])C1NC(C)=O.[Na+].[Na+] (stereo not drawn) [Compound 31] | 0/3 | 0/3 |  |  |  |  |  | 74.5 ± 6.7% | 15.9 ± 6.4% |  |
| CCCOC1OC(CO)C(OC2OC(CO)C(O)C(OCC(=O)[O-])C2O)C(OC2OC(C)C(O)C(O)C2O)C1NC(C)=O.[Na+] (stereo not drawn) [Compound 17] | 0/3 | 0/3 |  |  |  |  |  | 45.5 ± 3.5% | 14.9 ± 14.5% |  |
| CCCOC1OC(CO)C(OC2OC(C)C(O)C(O)C2O)C(OC2OC(CO)C(O)C(OS(=O)(=O)[O-])C2O)C1NC(C)=O.[Na+] (stereo not drawn) [Compound 189] |  |  |  |  | 73.6 ± 8.9% | 59.8 ± 9.7% |  |  |  | 90.9 ± 4.0% |
| COc1ccc(OC2OC(CO)C(OC3OC(CO)C(O)C(OS(=O)(=O)[O-])C3OC(=O)C(C)(C)C)C(OC3OC(C)C(O)C(O)C3O)C2OC(=O)C(C)(C)C)cc1.[Na+] (stereo not drawn) [Compound 142] |  |  |  |  | -3.3 ± 2.7% | 57.6 ± 12.6% | 84.8 ± 4.6% |  |  |  |
| CCCOC1OC(CO)C(OC2OC(C)C(O)C(O)C2O)C(OC2OC(CO)C(O)C(OCC(=O)[O-])C2O)C1NC(C)=O.[Na+] (stereo not drawn) [Compound 30] | 0/3 | 0/3 |  |  |  |  |  | 21.0 ± 5.9% | 15.4 ± 5.3% |  |
| CCCOC1OC(CO)C(OC2OC(CO)C(OS(=O)(=O)[O-])C(OS(=O)(=O)[O-])C2OS(=O)(=O)[O-])C(OC2OC(C)C(O)C(O)C2O)C1NC(C)=O.[Na+].[Na+].[Na+] (stereo not drawn) [Compound 12] | 0/3 | 0/3 |  |  |  |  |  | 45.3 ± 6.7% | 67.8 ± 5.2% |  |
